Values of other authors, collected in patent US20050020601A1, “Novel pyrazinones as CRF1 receptor antagonists” (Pfizer Inc, priority 2003, published 2005).

Columns and labels:
[1] = tested on: cultured human epidermal keratinocyte cells
rats = conditions: for effect on the "anxiogenic" effects/actions of CRF: conflict test

Row | Compound | keratinocyte cell proliferation [1] | effect on the "anxiogenic" effects/actions of CRF (rats) | behavioral activity alone (rats; operant conflict test, compound alone)
1 | CCN(c1nc(C)cc(N2CC=C(c3cccc(F)c3)CC2)n1)c1ccc(C(C)C)cc1SC [2-[N-(2-methylthio-4-isopropylphenyl)-N-ethylamino]-4-[4-(3-fluorophenyl)-1,2,3,6-tetrahydropyridine-1-yl]-6-methylpyrimidine] | keratinocyte cell proliferation promoting effect |  | 
2 | CNC(=O)c1cc2c(cn1)[nH]c1ccccc12 [FG 7142] |  | enhanced the actions of CRF | 
3 | CCOC(=O)c1ncn2c1CN(C)C(=O)c1cc(F)ccc1-2 [Ro 15-1788] |  | reversed the effects of CRF in a dose-dependent manner | without behavioral activity alone
